Where a name gives a salt, the structure may show the parent alone. Read-outs that look alike come from different tables or passages of the source.
Legend:
[1] = test system: formalin-induced pain behaviour; experiment: Mouse formalin test; format: in vivo
Procedure: Mice injected with 5% formalin into the mid-plantar surface of the right hind paw developed the characteristic formalin-induced pain behaviour, evidenced by a biphasic flinching and lifting/licking response. The time course of formalin-induced behaviours evidenced an immediate and acute nociceptive activity (0–5 min, phase I) that, after a short quiescent period (5–10 min, interphase), was followed by a more prolonged response (10–60 min, phase II).
To evaluate the systemic antinociceptive effect in both phases of the formalin test, vehicle, (−)-2R-LP2 (2) (2mg/kg), (−)-2S-LP2 (3) (0.7 mg/kg), (+)-2R/S-LP2 (7) (5 mg/kg), and (+)-2R-LP2 (8) (5 mg/kg) were administrated intraperitoneally (i.p.) 20 min before formalin injection, at doses chosen in accordance to previous studies.
Experiments were performed on male CD1 mice (Envigo Laboratories, Indianapolis, IN, USA) aged between 8 and 12 weeks. Mice were housed in 5 animals per cage under a 12/12 h light/dark cycle at a constant temperature (23–25 °C) with free access to food and water, and were allowed to acclimate for at least one week upon arrival before starting all experiments, which were conducted between 9:00 a.m. and 3:00 p.m. This study was executed according to the European Communities Council directive and Italian regulation (EEC Council 2010/63/EU and Italian D.Lgs. no. 26/2014) to replace, reduce, and refine the use of laboratory animals. All procedures were approved by the ethical committee of the University of Catania (OPBA) and by the Italian Ministry of Health (authorization n° 385/2021-PR).
Formalin and naloxone hydrochloride were purchased from Merck. PRE-84 synthesis was reported in the supporting information (Figure S7). All compounds were dissolved in pyrogen-free isotonic saline and dimethyl sulfoxide, (DMSO 0.5% v/v). All LP compounds were administrated i.p. 20 min before formalin injection. Naloxone hydrochloride s.c. and PRE-084 hydrochloride s.c. were administered 20 min before the injection of the LP compounds.
Formalin solution (5%, 10 μL) was administered subcutaneously into the plantar surface of the right hind paw (i.pl.), monitoring the nociceptive behavior, such as licking and flicking or shanking the injected paw, for 1 h and recording every 5 min, as previously reported.
The formalin injection induces a rapid pain response (phase I), which lasts about 5 min, due to direct nociceptors’ activation, characterized by an acute form of pain. After a short quiescent period, another behavioral pain form (phase II) occurs, considered more important clinically, characterized by an inflammatory component and persistent pain due to nociceptive sensitization in the dorsal horn of the spinal cord.
Results are expressed as mean ± S.E.M. (n = 8–10 per group). * p < 0.05, ** p < 0.01. Two-way ANOVA was followed by Bonferroni’s multiple comparison test. Statistical analyses were performed using GraphPad Prism version 9.3.1 (GraphPad Software, San Diego, CA, USA).

KOR = target: T1, KOR (Cavia porcellus, UniProt P41144); experiment: biochemical; format: binding, guinea pig
T1 construct: from tissue; host or cells: brain membranes of male Dunkin-Hartley guinea pigs

DOR = target: T2, DOR (Rattus norvegicus, UniProt P33533); experiment: DOR radioligand binding assay ([3H]-Deltorphin II, rat brain membranes)
T2 construct: from tissue; host or cells: brain membranes of male Sprague-Dawley rats

MOR = target: T3, MOR (Rattus norvegicus, UniProt P33535); experiment: MOR radioligand binding assay ([3H]-DAMGO, rat brain membranes)
T3 construct: from tissue; host or cells: brain membranes of male Sprague-Dawley rats

σ2R = target: T4, σ2R (Rattus norvegicus, UniProt Q5U3Y7); experiment: σ2R radioligand competition binding assay ([3H]DTG, rat liver membranes)
T4 construct: The thawed membrane preparation of rat liver (250 μg/sample) was incubated; from tissue; host or cells: liver membranes of male Sprague-Dawley rats
T4 sequence (Q5U3Y7 1-176): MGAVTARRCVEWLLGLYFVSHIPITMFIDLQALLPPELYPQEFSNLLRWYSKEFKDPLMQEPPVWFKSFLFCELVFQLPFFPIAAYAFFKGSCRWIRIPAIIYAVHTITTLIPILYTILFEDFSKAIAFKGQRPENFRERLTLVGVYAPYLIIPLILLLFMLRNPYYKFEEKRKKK

σ1R = target: T5, σ1R (Cavia porcellus, UniProt Q60492); experiment: σ1R radioligand competition binding assay ([3H]-(+)-pentazocine, guinea pig brain cortex membranes); details: for Ki σ2R/σ1R selectivity ratio: ratio of Ki σ2R to Ki σ1R
T5 construct: The thawed membrane preparation of guinea pig brain cortex (250 μg/sample) was incubated; from tissue; host or cells: brain cortex membranes of male Dunkin-Hartley guinea pigs

[2] = test system: formalin-induced pain behaviour; set-up: method as in PMID 32186844, PMID 19587856; details: mouse, injected alone; cited from earlier work
[3] = 5 mg/kg i.p. 20 min before formalin, vs vehicle

T3 sequence (P33535 whole entry): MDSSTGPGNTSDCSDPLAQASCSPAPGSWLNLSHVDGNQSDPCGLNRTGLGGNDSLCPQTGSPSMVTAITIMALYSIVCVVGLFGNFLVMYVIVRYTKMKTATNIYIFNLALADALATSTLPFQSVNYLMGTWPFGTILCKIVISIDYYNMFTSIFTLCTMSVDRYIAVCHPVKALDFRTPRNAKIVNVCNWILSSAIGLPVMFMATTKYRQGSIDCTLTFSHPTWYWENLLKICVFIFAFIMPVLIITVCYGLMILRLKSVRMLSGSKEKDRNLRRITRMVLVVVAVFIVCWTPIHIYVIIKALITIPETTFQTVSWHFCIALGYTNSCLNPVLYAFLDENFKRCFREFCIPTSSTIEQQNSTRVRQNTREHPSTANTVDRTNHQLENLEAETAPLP
T1 sequence (P41144 whole entry): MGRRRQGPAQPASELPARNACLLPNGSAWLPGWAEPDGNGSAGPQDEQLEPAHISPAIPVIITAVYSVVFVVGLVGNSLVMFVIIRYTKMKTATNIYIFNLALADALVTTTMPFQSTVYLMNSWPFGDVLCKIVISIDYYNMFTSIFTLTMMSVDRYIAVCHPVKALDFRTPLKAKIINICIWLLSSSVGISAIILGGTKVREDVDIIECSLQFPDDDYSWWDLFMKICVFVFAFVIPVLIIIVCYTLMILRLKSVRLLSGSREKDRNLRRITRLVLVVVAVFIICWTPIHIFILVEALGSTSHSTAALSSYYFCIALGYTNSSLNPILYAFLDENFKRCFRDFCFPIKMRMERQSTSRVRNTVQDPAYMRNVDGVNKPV
T5 sequence (Q60492 whole entry): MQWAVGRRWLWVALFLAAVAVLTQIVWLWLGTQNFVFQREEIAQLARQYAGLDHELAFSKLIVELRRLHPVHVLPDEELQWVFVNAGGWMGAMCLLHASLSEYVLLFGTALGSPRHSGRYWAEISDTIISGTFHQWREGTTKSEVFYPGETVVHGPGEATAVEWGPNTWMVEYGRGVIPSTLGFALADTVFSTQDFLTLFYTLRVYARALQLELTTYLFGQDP
T2 sequence (P33533 whole entry): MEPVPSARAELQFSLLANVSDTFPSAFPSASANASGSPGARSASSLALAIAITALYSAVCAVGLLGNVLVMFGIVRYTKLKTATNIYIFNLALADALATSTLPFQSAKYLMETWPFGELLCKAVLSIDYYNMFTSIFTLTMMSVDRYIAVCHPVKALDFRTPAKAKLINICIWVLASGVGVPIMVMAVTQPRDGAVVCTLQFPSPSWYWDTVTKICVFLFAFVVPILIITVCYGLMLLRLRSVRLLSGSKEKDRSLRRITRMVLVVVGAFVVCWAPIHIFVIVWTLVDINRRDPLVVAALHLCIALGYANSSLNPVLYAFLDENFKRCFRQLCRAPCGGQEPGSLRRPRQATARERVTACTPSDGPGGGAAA

## COC(CN1CC[C@]2(C)c3cc(O)ccc3C[C@H]1[C@H]2C)c1ccccc1 (single isomer, unassigned; (+)) [(+)-2R/S-LP2 (7)]
[1]; 5 mg/kg i.p. 20 min before formalin, phase I
  severity of the first phase of formalin-induced pain: did not alter
[1]; 5 mg/kg i.p. 20 min before formalin, phase II, vs vehicle
  second phase of formalin-induced pain (number of flinches, lifting/licking time): significantly decreased
[1]; PRE-084 hydrochloride 32 mg/kg s.c. 20 min before compound 5 mg/kg i.p., second phase
  antinociceptive effect after PRE-084 pre-treatment: prevented
KOR
  Ki: 1.39 ± 0.04 µM
DOR
  Ki: 1.03 ± 0.035 µM
MOR
  Ki: 1.14 ± 0.02 µM
σ2R
  Ki: 2.39 ± 0.514 µM
σ1R
  Ki: 26.6 ± 2.35 nM

## COC(CN1CC[C@@]2(C)c3cc(O)ccc3C[C@@H]1[C@@H]2C)c1ccccc1 (single isomer, unassigned; (-)) [(−)-2R/S-LP2 (1)]
σ2R
  Ki: 0.0665 ± 0.0109 µM
σ1R
  Ki: 171 ± 46.1 nM

## CO[C@@H](CN1CC[C@]2(C)c3cc(O)ccc3C[C@H]1[C@H]2C)c1ccccc1 [(+)-2R-LP2 (8), (2S,6S,11S)-3-((R)-2-methoxy-2-phenylethyl)-6,11-dimethyl-1,2,3,4,5,6-hexahydro-2,6-methanobenzo[d]azocin-8-ol]
[1]; [3]
  effect on nociceptive behaviour in the formalin test: not significative
KOR
  Ki: 1.61 ± 0.07 µM
DOR
  Ki: 1.01 ± 0.025 µM
MOR
  Ki: 0.789 ± 0.03 µM
σ2R
  Ki: 1.91 ± 0.325 µM
σ1R
  Ki: 47.9 ± 7.52 nM
  Ki σ2R/σ1R selectivity ratio: 40

## CO[C@H](CN1CC[C@]2(C)c3cc(O)ccc3C[C@H]1[C@H]2C)c1ccccc1 [(+)-2S-LP2 (9), (2S,6S,11S)-3-((S)-2-methoxy-2-phenylethyl)-6,11-dimethyl-1,2,3,4,5,6-hexahydro-2,6-methanobenzo[d]azocin-8-ol]
[1]; [3]
  effect on nociceptive behaviour in the formalin test: did not differ significantly from the vehicle
KOR
  Ki: 1.45 ± 0.029 µM
DOR
  Ki: 1.04 ± 0.04 µM
MOR
  Ki: 1.17 ± 0.03 µM
σ2R
  Ki: 2.22 ± 0.417 µM
σ1R
  Ki: 47 ± 8.82 nM
  Ki σ2R/σ1R selectivity ratio: 47

## CO[C@@H](CN1CC[C@@]2(C)c3cc(O)ccc3C[C@@H]1[C@@H]2C)c1ccccc1 [(−)-2R-LP2 (2)]
[1]; 2 mg/kg i.p. 20 min before 5% formalin
  analgesic effect, flinching/licking time in both phases of the formalin test: same profile with a minor potency
σ2R
  Ki: 0.0667 ± 0.0179 µM
σ1R
  Ki: 183 ± 21 nM

## CO[C@H](CN1CC[C@@]2(C)c3cc(O)ccc3C[C@@H]1[C@@H]2C)c1ccccc1 [(−)-2S-LP2 (3)]
[1]; 0.7 mg/kg i.p. 20 min before 5% formalin
  analgesic effect, flinching/licking time in both phases of the formalin test: significant analgesic effect
[1]; naloxone hydrochloride 3 mg/kg s.c. 20 min before compound 0.7 mg/kg i.p.
  antinociceptive effect after naloxone pre-treatment: antagonized
σ2R
  Ki: 1.01 ± 0.191 µM
σ1R
  Ki: 113 ± 13.5 nM

## CN1CCN(CCc2ccc(Cl)c(Cl)c2)CC1 [BD-1063, reference compound]
σ1R; [3H]-(+)-pentazocine 2 nM, guinea pig brain cortex membranes, read-out: Ki (nM) ± SD σ1R
  Ki: 14 ± 2.7 nM

## O=C(OCCN1CCOCC1)C1(c2ccccc2)CCCCC1 [PRE-084 hydrochloride, 2-morpholinoethyl 1-phenylcyclohexane-1-carboxylate]
[2]
  severity of the first and second phases of formalin-induced pain, given alone: did not change
